Measurements as given in patent US11517575B2, “Use of minaprine to reduce tumor growth” (Institut Gustave-Roussy, priority 2019, dated 2022).

Columns and labels:
MCA205 cells [1] = experiment: Anti-tumor vaccination assay, MCA205 cells in C57BL/6 mice; type: in vivo, mouse; details: rechallenge one week later
Description: (§1) FIG. 5. Identification of cannibalism modulators as immunogenic cell death inducers. MCA205 (A) or CT26 (E, I, M, Q) cells were treated with the indicated drugs. After 24 h of coculture with the indicated treatment, cell death was monitored by staining DiOC6(3) and PI, and the percentage of dying (DiOC6(3)^low PI^−, open bars) and dead (DiOC6(3)^low PI^+, closed bars) cells was determined by cytofluorometry. (B-D) MCA205 cells or (F-H, J-L, N-P, R-T) CT26 cells cocultured after x irradiation with the indicated compounds were inoculated subcutaneously into the right flank of […] or BALB/c mice, respectively. Seven days later, the mice were rechallenged with live cells injected into the opposite flank, and tumor growth was monitored (five mice per group).
(§2) The combination of IRCCE with IR induces efficient antitumor immunity. Considering that immunogenic cell death (ICD) inducers were identified (such as Digoxin, Digitoxin, Lanatoside C or Doxorubicin hydrochloride)^3, 4, 48-51) as IRCCE, the ability of these compounds to induce an antitumor immunity after radiotherapy was evaluated. […] Tumors were evaluated weekly using a common caliper. […] One week later, 5×10^5 untreated control cells were inoculated into the contralateral flank of mice and tumors were evaluated weekly using a common caliper. […]

CT26 cells = experiment: Anti-tumor vaccination assay, CT26 cells in BALB/c mice; type: in vivo, mouse; details: 8 Gy + 10 μM compound 24 h
Description: as §1
FIG. 6. Tumor vaccination experiments. CT26 cells were treated for 24 hours with 10 μM VP331 (A, F, K), 10 μM Minaprine (B, G, L), 10 μM Lopa87 (C, H, M), 10 μM SG6163F (D, I, N), 10 μM Azaguanine-8 (8-aza) (E, J, O) alone or combined with 8 Gy ionizing radiation and inoculated (s.c.) into immunocompetent BALB/c mice, which were rechallenged at the opposite flank 7 days later with the same cancer cells. The percentage of tumor-free mice was evaluated three times a week for the following 38 days. Percentage of total tumor free mice (A-E), tumor free-mice at the first injection site (F to J, P) or at the second injection site (K to O, Q) are shown. (*P<0.05, **P<0.01, ***P<0.001, two-way ANOVA).
The combination of IRCCE with IR induces efficient antitumor immunity. Considering that immunogenic cell death (ICD) inducers were identified (such as Digoxin, Digitoxin, Lanatoside C or Doxorubicin hydrochloride)^3, 4, 48-51) as IRCCE, the ability of these compounds to induce an antitumor immunity after radiotherapy was evaluated. First, a preclinical approaches was developed to study the immunological effects of IRCCE on two mouse models of carcinoma (colon CT26 carcinoma and fibrosarcoma MCA205). Initially, the ability of the combination of IRCCE+IR to trigger a specific anti-tumor immune response was appreciated using immunocompetent mice through anti-tumor vaccination assays. According to previously published studies^52, the injection of cancer cells succumbing to an immunogenic cell death (ICD) into immunocompetent mice must elicit a protective immune response that is specific for tumor antigens. Thus, 3×10^5 MCA205 cells were first treated with 10 μM of SG6163F for 24 hours. Then, treated cells were inoculated subcutaneously in 200 μl PBS into the lower flank of 8-week-old female C57BL/6 mice. One week later, 3×10^4 untreated control cells were inoculated into the contralateral flank of mice. Tumors were evaluated weekly using a common caliper. Animals bearing tumors that exceeded 20-25% body mass were euthanatized. […] Then, 3×10^6 CT26 cells were irradiated with 8 Gy in presence of 10 μM of SG6163F (FIGS. 5E and 5F), VP331 (FIGS. 5I and 5J), Minaprine dihydrochloride (FIGS. 5M and 5N) or LOPA87 (FIGS. 5Q and 5R) for 24 hours. Then, cells were inoculated as previously described subcutaneously in […] into the lower flank of 8-week-old female BALB/c mice. One week later, 5×10^5 untreated control cells were inoculated into the contralateral flank of mice and tumors were evaluated weekly using a common caliper. As previously mentioned, animals bearing tumors that exceeded 20-25% body mass were euthanatized. The percentage of dying cells in each condition was evaluated by determining with DiOC(6)3/IP staining (FIGS. 5E, 5I, 5M and 5Q). Finally, the ability of these compounds to repress the growth of cancer cells that have been injected 7 days after injection of irradiated and treated cancer cells was appreciated.
A second anti-tumor vaccination assay was done on CT26 mouse models of carcinoma as previously described. […]

MCA205 cells [2] = experiment: Cell death of treated MCA205 cells (DiOC6(3)/PI cytofluorometry); type: cell-based, mouse; details: 10 μM compound alone, 24 h
Description: as §1, §2

HCT116 cells = experiment: Screening of chemical libraries for IR-mediated cellular cannibalism (imaging flow cytometry, confocal validation); type: cell-based, human; details: 8 Gy irradiated HCT116 cells, 10 μM compound, 24 h culture
Description: FIG. 4 Identification of cannibalism modulators triggered by ionizing radiation. Compounds from the Prestwick (A) and CEA (F) libraries were tested for their capacities to induce cellular cannibalism after ionizing radiation. Cannibal cells were detected after homotypic cultures of 8 gray γ-irradiation HCT116 cells in the presence or absence of 10 μM of the Prestwick (A) and CEA […] library compounds. Each dot represents one compound. Representative images are shown in (B, G). (C, H) HCT116 cells were treated with the indicated drugs. After 24 h of treatment, cell death was monitored by staining with 3,3 dihexyloxacarbocyanine iodide (DiOC6(3)) and PI^+, and the percentage of dying (DiOC6(3)^low PI^−, open bars) and dead (DiOC6(3)^low PI^+, closed bars) cells was determined by cytofluorometry. Validation of the cannibalism inducers by fluorescent microscopy. Representative images (D, I) and quantification (E, J) are shown. Results are means s.e.m. of triplicate determinations.
Untreated HCT116 cells were labeled with CMFDA (green fluorescence, CMFDA^+) or CMTMR, (red fluorescence, CMTMR) and treated HCT116 cells with CMFDA (green fluorescence, CMFDA^+). The following cell mixtures were performed: untreated CMTMR^+ HCT116 cells were mixed with untreated CMFDA^+ HCT116 cells, or untreated CMTMR^+ HCT116 cells were mixed with treated CMFDA^+ HCT116 cells. Then, cells were co-cultured during 24 hours in the presence or absence of the pharmacological inhibitor of ROCK, Y27632 (30 μM), the pan-caspase inhibitor, Z-VAD-fmk (ZVAD, 100 μM), the inhibitor of caspase-1, Ac-YVAD-cmk (YVAD, 100 μM), the necroptosis inhibitor, Necrostatin-1 (NEC1, 30 μM), the inhibitor of the vacuolar type H(+)-ATPase (V-ATPase) inhibiting autophagy, Bafilomycin A1 (BafA1, 50 nM), the inhibitor of Cdks with an anti-mitotic activity, Roscovitine (Rosco, 10 μM). After 24 hours of co-culture, both detached and adherent cells were collected and stained with Hoechst […] (10 μg/mL) during 1 hour at 37° C. in warmed complete medium. To detect phosphatidylserine (PS) exposure and plasma membrane permeability, labeled HCT116 cells were successively incubated with Biotin-AnnexinV (BD Pharmingen) as recommended by manufacturer, […] BV786-Streptavidin (BD Biosciences) and 3 μM DRAQ7 (BioStatus) during 15 minutes at 25° C. After washing with PBS solution, samples were immediately analyzed using an imaging flow cytometer FlowSight® (Amnis®, part of EMD Millipore). Data were acquired at a 20× magnification, using INSPIRE software. The 405 nm, 488 nm, and 561 nm lasers were used for excitation. Brightfield, Annexin V-BV786, DRAQ7, CMFDA, CMTMR and Hoechst […] stainings were detected using respectively channels for 420-480 nm, 745-800 nm, 642-745 nm, 480-560 nm, 595-642 nm and 430-505 nm. At least 1000 events of cells per sample were analyzed. Additional single-labeled controls were prepared to normalize fluorescent signal across different channels. Acquired data were analyzed using the IDEAS analysis software (v6.1; Merck-Millipore). Gating strategy was the following. Cells were gated for focused cells using the Gradient RMS feature. Cells were gated for single cells using the aspect ratio and area features. For the cannibalism detection, cells were gated in the double positive CMFDA^+ and CMTMR^+ staining.
To detect PS exposure, plasma membrane permeability and cell cycle progression, cells were after co-culture sequentially labeled with specific fluorescent probes (such as FITC-conjugated AnnexinV, propidium iodide, and Hoechst 33342) and analyzed by flow cytometry. Both detached and adherent cells were collected and stained with Hoechst […] (10 μg/ml) during 1 hour at 37° C. in warmed complete medium. After washing with PBS, HCT116 cells were suspended in 1× binding buffer supplemented with fluorescein isothiocyanate (FITC)-conjugated Annexin V (BD Biosciences) and propidium iodide (PI, 1 μg/mL) (Sigma), as per manufacturer's instructions. […]

In the case of O=C1NC(c2ccccc2)=N/C1=C\c1cc2ccccc2c2ccccc12 [SG6163F], the “protective response after inoculation of untreated cells” value (MCA205 cells [1]; MCA205 cells treated with 10 μM compound alone, s.c. in C57BL/6 mice) was “did not exhibit a protective response”, the “mice with protective response” value (MCA205 cells [1]; MCA205 cells treated with 8 Gy of IR and 10 μM compound, C57BL/6 mice) was 3 of 5 and the “frequency of mice showing a protective response” value (CT26 cells; first assay: CT26 cells, rechallenge one week later) was “significant increase in the frequency of mice showing a protective response”. The “frequency of mice showing a protective response” value (CT26 cells; second assay: CT26 cells, rechallenge 7 days later) was “Significant increases in the frequency of mice showing a protective response”, the “increase of cell death in vitro” value (MCA205 cells [2]) was “not able to induce a significant increase of cell death” and the “enhancement of IR-mediated cellular cannibalism” value (HCT116 cells) was “efficient cellular cannibalism enhancer”.
